Reference: ChEMBL document CHEMBL1125619, “Effect of fluorine substitution on the adrenergic properties of 3-(tert-butylamino)-1-(3,4-dihydroxyphenoxy)-2-propanol” (J Med Chem, 1991)
pEC50, pKi: −log10 of the molar value.

Columns and labels:
[1] = target: Beta-2 adrenergic receptor (Cavia porcellus, UniProt Q8K4Z4); assay: Agonistic activity (beta2- adrenergic) for the percent maximal relaxation of isolated guinea pig trachea; type: functional, tissue-based
[2] = target: Beta-1 adrenergic receptor (Cavia porcellus, UniProt B0FL73); assay: Agonistic activity (beta-1 adrenergic receptor) for the percent maximal increase in contraction rate of isolated guinea pig atria; type: functional
Sequence of Beta-1 adrenergic receptor (Cavia porcellus, UniProt B0FL73) (B0FL73 whole entry): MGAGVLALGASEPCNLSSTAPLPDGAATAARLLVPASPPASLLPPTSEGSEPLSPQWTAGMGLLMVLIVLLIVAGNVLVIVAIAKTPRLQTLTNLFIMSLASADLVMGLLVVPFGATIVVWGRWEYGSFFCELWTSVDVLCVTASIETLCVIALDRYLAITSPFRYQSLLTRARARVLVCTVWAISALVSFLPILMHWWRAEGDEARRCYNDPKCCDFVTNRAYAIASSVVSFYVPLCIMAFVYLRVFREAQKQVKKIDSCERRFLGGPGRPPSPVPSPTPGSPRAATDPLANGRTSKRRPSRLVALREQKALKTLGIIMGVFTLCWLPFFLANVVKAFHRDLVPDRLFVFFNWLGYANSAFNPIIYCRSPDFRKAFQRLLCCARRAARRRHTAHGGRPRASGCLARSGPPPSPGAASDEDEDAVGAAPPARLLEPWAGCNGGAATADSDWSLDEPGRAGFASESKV

[3] = target: Beta-1 adrenergic receptor (Rattus norvegicus, UniProt P18090)
Sequence of Beta-1 adrenergic receptor (Rattus norvegicus, UniProt P18090) (P18090 whole entry): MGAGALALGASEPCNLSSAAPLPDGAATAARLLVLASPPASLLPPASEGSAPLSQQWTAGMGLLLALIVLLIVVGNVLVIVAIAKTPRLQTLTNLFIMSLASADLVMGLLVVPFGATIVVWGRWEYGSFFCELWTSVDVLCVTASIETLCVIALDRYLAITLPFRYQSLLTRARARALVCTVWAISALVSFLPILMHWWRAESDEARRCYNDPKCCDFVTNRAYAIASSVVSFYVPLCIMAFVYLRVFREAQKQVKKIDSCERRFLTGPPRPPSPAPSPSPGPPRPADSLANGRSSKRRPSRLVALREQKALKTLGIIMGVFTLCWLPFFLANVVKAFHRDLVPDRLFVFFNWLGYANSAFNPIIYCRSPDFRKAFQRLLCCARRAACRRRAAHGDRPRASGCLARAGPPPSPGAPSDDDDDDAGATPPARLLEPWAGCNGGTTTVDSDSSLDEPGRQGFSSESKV
Description: Compound was evaluated for the inhibition of binding of [3H]dihydroalprenolol from beta-1 adrenergic receptor of rat cerebral cortical membranes

Adrenergic receptor beta = Adrenergic receptor beta (Rattus norvegicus, UniProt P18090+P10608+P26255); assay: Beta adrenergic receptor agonistic activity for the stimulation of accumulation of cyclic AMP in cultured C6 glioma cells; type: functional, cell-based

Sequence of Beta-2 adrenergic receptor (Q8K4Z4 whole entry): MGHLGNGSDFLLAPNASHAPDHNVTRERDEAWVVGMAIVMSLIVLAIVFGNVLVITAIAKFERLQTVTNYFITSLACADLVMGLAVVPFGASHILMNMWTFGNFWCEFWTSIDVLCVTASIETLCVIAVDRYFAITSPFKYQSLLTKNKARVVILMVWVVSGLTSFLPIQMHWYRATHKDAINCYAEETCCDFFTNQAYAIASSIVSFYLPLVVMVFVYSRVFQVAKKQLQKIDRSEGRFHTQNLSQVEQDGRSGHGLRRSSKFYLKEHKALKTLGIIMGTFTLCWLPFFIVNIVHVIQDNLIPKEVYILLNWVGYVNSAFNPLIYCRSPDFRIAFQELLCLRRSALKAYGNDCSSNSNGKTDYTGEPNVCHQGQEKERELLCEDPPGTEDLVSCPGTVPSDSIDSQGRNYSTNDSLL

pEC50 [1] | pEC50 [2] | pKi [3] | EC50 (Adrenergic receptor beta) | SMILES
< 5.00 | 6.76 | 4.06 | >> 10000 nM | CC(C)(C)NCC(O)COc1cc(O)c(O)cc1F (stereo not drawn)
7.24 |  |  |  | CC(C)NCC(O)c1ccc(O)c(O)c1 (stereo not drawn) [ISOPROTERENOL]
6.89 | 8.33 | 6.92 | 8.2 nM | CC(C)(C)NCC(O)COc1ccc(O)c(O)c1 (stereo not drawn)
7.42 | 8.07 | 7.22 | 9.2 nM | CC(C)(C)NCC(O)COc1ccc(O)c(O)c1F (stereo not drawn)
